According to US20260007131A1, “HERBICIDAL COMPOSITION CONTAINING DIFLUOROBUTENOIC ACID AMIDE COMPOUND” (ISHIHARA SANGYO KAISHA, LTD., priority 2022, published 2026):

Columns and labels:
Assay type in all cases: in vivo
[1] = system: redroot pigweed (Amaranthus retroflexus); test: Herbicidal effect on redroot pigweed (soil treatment)
Source text: (§1) Upland soil was put into a 1/300,000 hectare (ha) pot, seeds of barnyardgrass (Echinochloa crus-galli) were sown, and about 1.5 cm of cover soil was put. […] On the next day after sowing, the spray solution was sprayed with a small sprayer for soil treatment.
(§2) Upland soil was put into a 1/300,000 hectare (ha) pot, seeds of barnyardgrass (Echinochloa crus-galli), crabgrass (Digitaria sanguinalis), green foxtail (Setaria viridis), Italian ryegrass (Lolium multiflorum), redroot pigweed (Amaranthus retroflexus) and common chickweed (Stellaria media) were sown, and about 1.5 cm of cover soil was put.

[2] = system: barnyardgrass (Echinochloa crus-galli); test: Herbicidal effect on barnyardgrass (foliar treatment)
Experimental: (§3) Upland soil was put into a 1/300,000 hectare (ha) pot, seeds of barnyardgrass (Echinochloa crus-galli) were sown, and about 1.5 cm of cover soil was put. The barnyardgrass was grown for 10 days in a greenhouse until it reached a predetermined leaf stage. […] The spray solution was sprayed over the grown barnyardgrass with a small sprayer for foliar treatment.
(§4) Upland soil was put into a 1/300,000 hectare (ha) pot, seeds of barnyardgrass (Echinochloa crus-galli), crabgrass (Digitaria sanguinalis), green foxtail (Setaria viridis), wild oat (Avena fatua), Italian ryegrass (Lolium multiflorum), foxtail shortawn (Alopecurus aequalis), annual bluegrass (Poa annua), redroot pigweed (Amaranthus retroflexus), common chickweed (Stellaria media) common lambsquarters (Chenopodium album) and black nightshade (Solanum nigrum) were sown, and about 1.5 cm of cover soil was put. The plants were grown for 10 days in a greenhouse until they reached a predetermined leaf stage.

[3] = system: barnyardgrass (Echinochloa crus-galli); test: Herbicidal effect on barnyardgrass (soil treatment)
Source text: as §1, §2

[4] = system: crabgrass (Digitaria sanguinalis); test: Herbicidal effect on crabgrass (foliar treatment)
Experimental: as §3, §4

[5] = system: Italian ryegrass (Lolium multiflorum); test: Herbicidal effect on Italian ryegrass (soil treatment); details: Comparative Test 2, Italian ryegrass, read-out: Growth inhibition rate
Source text: as §1, §2

[6] = system: foxtail shortawn (Alopecurus aequalis); test: Herbicidal effect on foxtail shortawn (foliar treatment)
Experimental: as §3, §4

[7] = system: common lambsquarters (Chenopodium album); test: Herbicidal effect on common lambsquarters (foliar treatment)
Experimental: as §3, §4

[8] = system: redroot pigweed (Amaranthus retroflexus); test: Herbicidal effect on redroot pigweed (foliar treatment)
Experimental: as §3, §4

[9] = system: green foxtail (Setaria viridis); test: Herbicidal effect on green foxtail (foliar treatment)
Experimental: as §3, §4

[10] = system: crabgrass (Digitaria sanguinalis); test: Herbicidal effect on crabgrass (soil treatment)
Source text: as §1, §2

[11] = system: common chickweed (Stellaria media); test: Herbicidal effect on common chickweed (foliar treatment)
Experimental: as §3, §4

[12] = system: Italian ryegrass (Lolium multiflorum); test: Herbicidal effect on Italian ryegrass (foliar treatment)
Experimental: as §3, §4

wild oat (Avena fatua) = test: Herbicidal effect on wild oat (foliar treatment)
Experimental: as §3, §4

[13] = system: mexican burningbush (Kochia scoparia); test: Herbicidal effect on mexican burningbush (soil treatment); details: Bassia scoparia, 14th day, read-out: growth inhibition rate
Source text: Upland soil was put into a 1/300,000 hectare (ha) pot, seeds of barnyardgrass (Echinochloa crus-galli) were sown, and about 1.5 cm of cover soil was put. The Invention Compound was weighed to achieve a predetermined active ingredient amount, dissolved in acetone (containing 0.5 vol % of surfactant (TritonX-100: manufactured by Kishida Chemical Co., Ltd.)) or dimethyl sulfoxide and diluted with water (containing 0.1 vol % of agricultural spreader (Surfactant WK: manufactured by MARUWA Biochemical Co., Ltd.)) in an amount corresponding to 1,000 liter per hectare, to prepare a spray solution. On the next day after sowing, the spray solution was sprayed with a small sprayer for soil treatment.
On the 14th day after the soil treatment, the state of growth of each plant was visually observed.
To confirm herbicidal effect on mexican burningbush (Kochia scoparia), the same test as in Test Example 2 (2-1) (soil treatment) was conducted using the following compounds.

[14] = system: annual bluegrass (Poa annua); test: Herbicidal effect on annual bluegrass (foliar treatment)
Experimental: as §3, §4

[15] = system: green foxtail (Setaria viridis); test: Herbicidal effect on green foxtail (soil treatment)
Source text: as §1, §2

[16] = system: common chickweed (Stellaria media); test: Comparative Test 2: herbicidal effect on common chickweed (soil treatment); details: Comparative Test 2, common chickweed, read-out: Growth inhibition rate
Source text: Upland soil was put into a 1/300,000 hectare (ha) pot, seeds of barnyardgrass (Echinochloa crus-galli), crabgrass (Digitaria sanguinalis), green foxtail (Setaria viridis), Italian ryegrass (Lolium multiflorum), redroot pigweed (Amaranthus retroflexus) and common chickweed (Stellaria media) were sown, and about 1.5 cm of cover soil was put. The Invention Compound (Aa-1-1, Aa-9-2) or the compound 4b described in Patent Document 1 was weighed to achieve a predetermined active ingredient dose, dissolved in acetone (containing 0.5 vol % of surfactant (TritonX-100: manufactured by Kishida Chemical Co., Ltd.)) or dimethyl sulfoxide and diluted with water (containing 0.1 vol % of agricultural spreader (Surfactant WK: manufactured by MARUWA Biochemical Co., Ltd.) in an amount corresponding to 1,000 liter per hectare, to prepare each spray solution. On the next day after sowing, each spray solution was sprayed with a small sprayer for soil treatment. On the 14th day after the soil treatment, the state of growth of each plant was visually observed, and the herbicidal effect was evaluated in accordance with the growth inhibition rate (%) of from 0 (equivalent to the non-treated area) to 100 (complete kill).

[17] = system: black nightshade (Solanum nigrum); test: Herbicidal effect on black nightshade (foliar treatment)
Experimental: as §3, §4

[18] = redroot pigweed, 250 g/ha, 14th day, read-out: growth inhibition rate
[19] = barnyardgrass, 250 g/ha, 14th day, read-out: growth inhibition rate
[20] = crabgrass, 250 g/ha, 14th day, read-out: growth inhibition rate
[21] = green foxtail, 250 g/ha, 14th day, read-out: growth inhibition rate

COC(=O)[C@H]1C[C@@H](NC(=O)C(F)(F)/C=C/c2cc(F)cc(F)c2)C1 [Aa-1-1]
≥ 90%: inhibition at 500 g/ha ([1]; Comparative Test 2, redroot pigweed, 500 g/ha, read-out: Growth inhibition rate) | inhibition at 1000 g/ha ([1]; Comparative Test 2, redroot pigweed, 1000 g/ha, read-out: Growth inhibition rate) | inhibition at 500 g/ha ([2]; Comparative Test 1, barnyardgrass, 500 g/ha, read-out: Growth inhibition rate) | inhibition at 1000 g/ha ([2]; Comparative Test 1, barnyardgrass, 1000 g/ha, read-out: Growth inhibition rate) | inhibition at 500 g/ha ([3]; Comparative Test 2, barnyardgrass, 500 g/ha, read-out: Growth inhibition rate) | inhibition at 1000 g/ha ([3]; Comparative Test 2, barnyardgrass, 1000 g/ha, read-out: Growth inhibition rate) | inhibition at 500 g/ha ([4]; Comparative Test 1, crabgrass, 500 g/ha, read-out: Growth inhibition rate) | inhibition at 1000 g/ha ([4]; Comparative Test 1, crabgrass, 1000 g/ha, read-out: Growth inhibition rate) | inhibition at 500 g/ha ([5]; 500 g/ha) | inhibition at 1000 g/ha ([5]; 1000 g/ha) | inhibition at 500 g/ha ([6]; Comparative Test 1, foxtail shortawn, 500 g/ha, read-out: Growth inhibition rate) | inhibition at 1000 g/ha ([6]; Comparative Test 1, foxtail shortawn, 1000 g/ha, read-out: Growth inhibition rate) | inhibition at 500 g/ha ([9]; Comparative Test 1, green foxtail, 500 g/ha, read-out: Growth inhibition rate) | inhibition at 1000 g/ha ([9]; Comparative Test 1, green foxtail, 1000 g/ha, read-out: Growth inhibition rate) | inhibition at 500 g/ha ([10]; Comparative Test 2, crabgrass, 500 g/ha, read-out: Growth inhibition rate) | inhibition at 1000 g/ha ([10]; Comparative Test 2, crabgrass, 1000 g/ha, read-out: Growth inhibition rate) | inhibition at 500 g/ha ([11]; Comparative Test 1, common chickweed, 500 g/ha, read-out: Growth inhibition rate) | inhibition at 1000 g/ha ([11]; Comparative Test 1, common chickweed, 1000 g/ha, read-out: Growth inhibition rate) | inhibition at 500 g/ha ([12]; Comparative Test 1, Italian ryegrass, 500 g/ha, read-out: Growth inhibition rate) | inhibition at 1000 g/ha ([12]; Comparative Test 1, Italian ryegrass, 1000 g/ha, read-out: Growth inhibition rate) | inhibition at 500 g/ha (wild oat (Avena fatua); Comparative Test 1, wild oat, 500 g/ha, read-out: Growth inhibition rate) | inhibition at 1000 g/ha (wild oat (Avena fatua); Comparative Test 1, wild oat, 1000 g/ha, read-out: Growth inhibition rate) | inhibition at 500 g/ha ([14]; Comparative Test 1, annual bluegrass, 500 g/ha, read-out: Growth inhibition rate) | inhibition at 1000 g/ha ([14]; Comparative Test 1, annual bluegrass, 1000 g/ha, read-out: Growth inhibition rate) | inhibition at 500 g/ha ([15]; Comparative Test 2, green foxtail, 500 g/ha, read-out: Growth inhibition rate) | inhibition at 1000 g/ha ([15]; Comparative Test 2, green foxtail, 1000 g/ha, read-out: Growth inhibition rate) | inhibition at 500 g/ha ([16]; 500 g/ha) | inhibition at 1000 g/ha ([16]; 1000 g/ha) | inhibition at 1000 g/ha ([17]; Comparative Test 1, black nightshade, 1000 g/ha, read-out: Growth inhibition rate)
≥ 70%: inhibition at 250 g/ha [1, 18] | inhibition at 250 g/ha [2, 19] | inhibition at 250 g/ha [3, 19] | inhibition at 250 g/ha [4, 20] | inhibition at 250 g/ha ([6]; foxtail shortawn, 250 g/ha, 14th day, read-out: growth inhibition rate) | inhibition at 250 g/ha ([7]; common lambsquarters, 250 g/ha, 14th day, read-out: growth inhibition rate) | inhibition at 250 g/ha [8, 18] | inhibition at 250 g/ha [9, 21] | inhibition at 250 g/ha [10, 20] | inhibition at 250 g/ha ([11]; common chickweed, 250 g/ha, 14th day, read-out: growth inhibition rate) | inhibition at 250 g/ha ([12]; Italian ryegrass, 250 g/ha, 14th day, read-out: growth inhibition rate) | inhibition at 250 g/ha (wild oat (Avena fatua); wild oat, 250 g/ha, 14th day, read-out: growth inhibition rate) | inhibition at 250 g/ha [13] | inhibition at 250 g/ha ([14]; annual bluegrass, 250 g/ha, 14th day, read-out: growth inhibition rate) | inhibition at 250 g/ha [15, 21] | inhibition at 250 g/ha ([17]; black nightshade, 250 g/ha, 14th day, read-out: growth inhibition rate)
70 to 90%: inhibition at 500 g/ha ([7]; Comparative Test 1, common lambsquarters, 500 g/ha, read-out: Growth inhibition rate) | inhibition at 1000 g/ha ([7]; Comparative Test 1, common lambsquarters, 1000 g/ha, read-out: Growth inhibition rate) | inhibition at 500 g/ha ([8]; Comparative Test 1, redroot pigweed, 500 g/ha, read-out: Growth inhibition rate) | inhibition at 1000 g/ha ([8]; Comparative Test 1, redroot pigweed, 1000 g/ha, read-out: Growth inhibition rate) | inhibition at 500 g/ha ([17]; Comparative Test 1, black nightshade, 500 g/ha, read-out: Growth inhibition rate)
